Results from PubChem BioAssay (NCI).
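Values below derive from 48-hour exposures of cells grown in 96-well plates, with endpoints linearly interpolated between the two concentrations bracketing the appropriate inhibition level. TGI denotes the concentration required for complete inhibition of growth.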

What was measured:
Assay in all cases: DTP human tumour cell line panel, 48 h
HCT-15 colon = test system: HCT-15 colon
LOX IMVI melanoma = test system: LOX IMVI melanoma
EKVX NSCLC = test system: EKVX NSCLC
SN12C renal = test system: SN12C renal
SNB-75 CNS = test system: SNB-75 CNS
SNB-19 CNS = test system: SNB-19 CNS
TK-10 renal = test system: TK-10 renal
SW-620 colon = test system: SW-620 colon
A549 NSCLC = test system: A549 NSCLC
SR leukemia = test system: SR leukemia
SF-268 CNS = test system: SF-268 CNS
SNB-78 CNS = test system: SNB-78 CNS
XF 498 CNS = test system: XF 498 CNS
DMS 273 small cell lung = test system: DMS 273 small cell lung
HCT-116 colon = test system: HCT-116 colon
SK-MEL-5 melanoma = test system: SK-MEL-5 melanoma
LXFL 529 NSCLC = test system: LXFL 529 NSCLC
HT29 colon = test system: HT29 colon
NCI-H226 lung = test system: NCI-H226 lung
OVCAR-4 ovarian = test system: OVCAR-4 ovarian
KM20L2 colon = test system: KM20L2 colon
DMS 114 small cell lung = test system: DMS 114 small cell lung
NCI-H23 lung = test system: NCI-H23 lung
U251 CNS = test system: U251 CNS
K-562 leukemia = test system: K-562 leukemia
CCRF-CEM leukemia = test system: CCRF-CEM leukemia
SK-MEL-2 melanoma = test system: SK-MEL-2 melanoma
UACC-62 melanoma = test system: UACC-62 melanoma
HOP-18 NSCLC = test system: HOP-18 NSCLC
RXF 393 renal = test system: RXF 393 renal
ACHN renal = test system: ACHN renal
M19-MEL melanoma = test system: M19-MEL melanoma
786-0 renal = test system: 786-0 renal
SK-MEL-28 melanoma = test system: SK-MEL-28 melanoma
SK-OV-3 ovarian = test system: SK-OV-3 ovarian
MALME-3M melanoma = test system: MALME-3M melanoma
UO-31 renal = test system: UO-31 renal
HL-60(TB) leukemia = test system: HL-60(TB) leukemia
OVCAR-8 ovarian = test system: OVCAR-8 ovarian
MOLT-4 leukemia = test system: MOLT-4 leukemia
M14 melanoma = test system: M14 melanoma
NCI-H460 lung = test system: NCI-H460 lung
KM12 colon = test system: KM12 colon
SF-295 CNS = test system: SF-295 CNS
NCI-H522 lung = test system: NCI-H522 lung
HOP-62 NSCLC = test system: HOP-62 NSCLC
UACC-257 melanoma = test system: UACC-257 melanoma
COLO 205 colon = test system: COLO 205 colon
RPMI-8226 leukemia = test system: RPMI-8226 leukemia
OVCAR-3 ovarian = test system: OVCAR-3 ovarian
HCC-2998 colon = test system: HCC-2998 colon
OVCAR-5 ovarian = test system: OVCAR-5 ovarian
CAKI-1 renal = test system: CAKI-1 renal
SF-539 CNS = test system: SF-539 CNS
DLD-1 colon = test system: DLD-1 colon
IGROV1 ovarian = test system: IGROV1 ovarian

Measured: TGI

Cc1ccc(NC(=O)CSc2nnc(Cc3ccccc3)o2)c(C)c1
> 100 µM: HCT-15 colon | LOX IMVI melanoma | EKVX NSCLC | SN12C renal | SNB-75 CNS | SNB-19 CNS | TK-10 renal | SW-620 colon | A549 NSCLC | SR leukemia | SF-268 CNS | SNB-78 CNS | XF 498 CNS | DMS 273 small cell lung | HCT-116 colon | SK-MEL-5 melanoma | LXFL 529 NSCLC | HT29 colon | NCI-H226 lung | OVCAR-4 ovarian | KM20L2 colon | DMS 114 small cell lung | NCI-H23 lung | U251 CNS | K-562 leukemia | CCRF-CEM leukemia | SK-MEL-2 melanoma | UACC-62 melanoma | HOP-18 NSCLC | RXF 393 renal | ACHN renal | M19-MEL melanoma | 786-0 renal | SK-MEL-28 melanoma | SK-OV-3 ovarian | MALME-3M melanoma | UO-31 renal | HL-60(TB) leukemia | OVCAR-8 ovarian | MOLT-4 leukemia | M14 melanoma | NCI-H460 lung | KM12 colon | SF-295 CNS | NCI-H522 lung | HOP-62 NSCLC | UACC-257 melanoma | COLO 205 colon | RPMI-8226 leukemia

COC(=O)/C(C#N)=C1\CCC(Nc2cccc(C(F)(F)F)c2)N1C (stereo not drawn)
> 100 µM: LOX IMVI melanoma | EKVX NSCLC | SN12C renal | SNB-75 CNS | OVCAR-3 ovarian | HCC-2998 colon | SNB-19 CNS | OVCAR-5 ovarian | TK-10 renal | SW-620 colon | A549 NSCLC | SF-268 CNS | SNB-78 CNS | XF 498 CNS | HCT-116 colon | LXFL 529 NSCLC | HT29 colon | NCI-H226 lung | OVCAR-4 ovarian | KM20L2 colon | NCI-H23 lung | U251 CNS | K-562 leukemia | CCRF-CEM leukemia | SK-MEL-2 melanoma | UACC-62 melanoma | HOP-18 NSCLC | CAKI-1 renal | SF-539 CNS | RXF 393 renal | ACHN renal | 786-0 renal | SK-MEL-28 melanoma | SK-OV-3 ovarian | MALME-3M melanoma | DLD-1 colon | UO-31 renal | HL-60(TB) leukemia | OVCAR-8 ovarian | MOLT-4 leukemia | M14 melanoma | NCI-H460 lung | KM12 colon | SF-295 CNS | NCI-H522 lung | HOP-62 NSCLC | UACC-257 melanoma | IGROV1 ovarian | RPMI-8226 leukemia
